Tests used:
[1] = target: Tyrosine-protein kinase ITK/TSK (Homo sapiens, UniProt Q08881); experiment: Binding affinity to wild-type human partial length ITK (R335 to L620 residues) expressed in bacterial expression system by Kinomescan method
[2] = target: Tyrosine-protein kinase Tec (Homo sapiens, UniProt P42680); experiment: Binding affinity to wild-type human partial length TEC (L341 to D620 residues) expressed in bacterial expression system by Kinomescan method
[3] = target: Tyrosine-protein kinase TXK (Homo sapiens, UniProt P42681); experiment: Binding affinity to wild-type human partial length TXK tyrosine kinase (L238 to W527 residues) expressed in bacterial expression system by Kinomescan method
Cytochrome P450 3A4 = Cytochrome P450 3A4 (Homo sapiens, UniProt P08684); experiment: Inhibition of CYP3A4 (unknown origin)
Cytochrome P450 2C9 = Cytochrome P450 2C9 (Homo sapiens, UniProt P11712); experiment: Inhibition of CYP2C9 (unknown origin)
Cytochrome P450 2C19 = Cytochrome P450 2C19 (Homo sapiens, UniProt P33261); experiment: Inhibition of CYP2C19 (unknown origin)
Cytochrome P450 1A2 = Cytochrome P450 1A2 (Homo sapiens, UniProt P05177); experiment: Inhibition of CYP1A2 (unknown origin)
[4] = target: Tyrosine-protein kinase ABL1 (Homo sapiens) (UniProt P00519); experiment: Inhibition of wild-type human non-phosphorylated ABL1 (S229 to K512 residues) expressed in mammalian expression system at 1 uM by Kinomescan method relative to control
[5] = target: Tyrosine-protein kinase receptor UFO (Homo sapiens) (UniProt P30530); experiment: Inhibition of wild-type human partial length AXL (R497 to Y821 residues) expressed in bacterial expression system at 1 uM by Kinomescan method relative to control
[6] = target: Ephrin type-B receptor 6 (Homo sapiens) (UniProt O15197); experiment: Inhibition of wild-type human partial length EPHB6 (Q634 to P948 residues) expressed in mammalian expression system at 1 uM by Kinomescan method relative to control
[7] = target: Beta-adrenergic receptor kinase 1 (Homo sapiens) (UniProt P25098); experiment: Inhibition of wild-type human full length GRK2 (M1 to L689 residues) expressed in mammalian expression system at 1 uM by Kinomescan method relative to control
[8] = target: MAP kinase-interacting serine/threonine-protein kinase 2 (Homo sapiens) (UniProt Q9HBH9); experiment: Inhibition of wild-type human partial length MKNK2 (G63 to S388 residues) expressed in mammalian expression system at 1 uM by Kinomescan method relative to control
[9] = target: Mitogen-activated protein kinase kinase kinase 14 (Homo sapiens) (UniProt Q99558); experiment: Inhibition of wild-type human partial length NIK (L318 to P947 residues) expressed in mammalian expression system at 1 uM by Kinomescan method relative to control
[10] = target: Receptor-interacting serine/threonine-protein kinase 1 (Homo sapiens) (UniProt Q13546); experiment: Inhibition of wild-type human partial length RIPK1 (M1 to K305 residues) expressed in bacterial expression system at 1 uM by Kinomescan method relative to control
[11] = target: TGF-beta receptor type-1 (Homo sapiens) (UniProt P36897); experiment: Inhibition of wild-type human partial length TGFBR1 (D179 to M503 residues) expressed in bacterial expression system at 1 uM by Kinomescan method relative to control
B cell [12] = experiment: Antiproliferative activity against goat anti-human IgM antibody/recombinant human IL4-stimulated human PBMC-derived B cells assessed as decrease in cell viability pretreated for 30 mins followed by goat anti-human IgM antibody/recombinant human IL4 stimulation for 3 days by CellTiter-Glo reagent assay; format: functional, cell-based
B cell [13] = experiment: Antiproliferative activity against goat anti-human IgM antibody-stimulated human PBMC-derived B cells assessed as decrease in cell viability pretreated for 30 mins followed by goat anti-human IgM antibody stimulation for 3 days by CellTiter-Glo reagent assay; format: functional, cell-based
B cell [14] = experiment: Antiproliferative activity against goat anti-human IgM antibody/BAFF-stimulated human PBMC-derived B cells assessed as decrease in cell viability pretreated for 30 mins followed by goat anti-human IgM antibody/BAFF stimulation for 3 days by CellTiter-Glo reagent assay; format: functional, cell-based
[15] = target: Tyrosine-protein kinase ABL1 (Homo sapiens) (UniProt P00519); experiment: Inhibition of wild-type human non-phosphorylated ABL1 (S229 to K512 residues) expressed in mammalian expression system at 10 uM by Kinomescan method relative to control
[16] = target: Tyrosine-protein kinase CSK (Homo sapiens) (UniProt P41240); experiment: Inhibition of wild-type human full length CSK (M1 to L450 residues) expressed in bacterial expression system at 10 uM by Kinomescan method relative to control
[17] = system: Epidermal growth factor receptor (Homo sapiens), P00533 [G719C]; experiment: Inhibition of human partial length EGFR G719C mutant (R669 to V1011 residues) expressed in bacterial expression system at 10 uM by Kinomescan method relative to control
[18] = target: Mitogen-activated protein kinase 6 (Homo sapiens) (UniProt Q16659); experiment: Inhibition of wild-type human partial length ERK3 (M1 to P413 residues) expressed in bacterial expression system at 10 uM by Kinomescan method relative to control
[19] = target: Vascular endothelial growth factor receptor 1 (Homo sapiens) (UniProt P17948); experiment: Inhibition of wild-type human partial length FLT1 (R781 to F1239 residues) expressed in bacterial expression system at 10 uM by Kinomescan method relative to control
[20] = target: Tyrosine-protein kinase HCK (Homo sapiens) (UniProt P08631); experiment: Inhibition of wild-type human full length HCK (M22 to P526 residues) expressed in bacterial expression system at 10 uM by Kinomescan method relative to control
[21] = target: Inhibitor of nuclear factor kappa-B kinase subunit epsilon (Homo sapiens) (UniProt Q14164); experiment: Inhibition of wild-type human full length IKK-epsilon (M1 to V716 residues) expressed in mammalian expression system at 10 uM by Kinomescan method relative to control
[22] = target: MAP kinase-interacting serine/threonine-protein kinase 2 (Homo sapiens) (UniProt Q9HBH9); experiment: Inhibition of wild-type human partial length MKNK2 (G63 to S388 residues) expressed in mammalian expression system at 10 uM by Kinomescan method relative to control
[23] = target: Serine/threonine-protein kinase 24 (Homo sapiens) (UniProt Q9Y6E0); experiment: Inhibition of wild-type human partial length MST3 (A30 to S311 residues) expressed in bacterial expression system at 10 uM by Kinomescan method relative to control
[24] = system: Phosphatidylinositol 4,5-bisphosphate 3-kinase catalytic subunit alpha isoform (Homo sapiens), P42336 [C420R]; experiment: Inhibition of human partial length PIK3CA C420R mutant (R108 to N1068 residues) expressed in mammalian expression system at 10 uM by Kinomescan method relative to control
[25] = target: Serine/threonine-protein kinase 16 (Homo sapiens) (UniProt O75716); experiment: Inhibition of wild-type human partial length STK16 (G11 to I305 residues) expressed in bacterial expression system at 10 uM by Kinomescan method relative to control
[26] = target: Serine/threonine-protein kinase TAO3 (Homo sapiens) (UniProt Q9H2K8); experiment: Inhibition of wild-type human partial length TAOK3 (M1 to T316 residues) expressed in mammalian expression system at 10 uM by Kinomescan method relative to control

Chain of Tyrosine-protein kinase ABL1 (Homo sapiens) (P00519 whole entry, the tested form may be a part): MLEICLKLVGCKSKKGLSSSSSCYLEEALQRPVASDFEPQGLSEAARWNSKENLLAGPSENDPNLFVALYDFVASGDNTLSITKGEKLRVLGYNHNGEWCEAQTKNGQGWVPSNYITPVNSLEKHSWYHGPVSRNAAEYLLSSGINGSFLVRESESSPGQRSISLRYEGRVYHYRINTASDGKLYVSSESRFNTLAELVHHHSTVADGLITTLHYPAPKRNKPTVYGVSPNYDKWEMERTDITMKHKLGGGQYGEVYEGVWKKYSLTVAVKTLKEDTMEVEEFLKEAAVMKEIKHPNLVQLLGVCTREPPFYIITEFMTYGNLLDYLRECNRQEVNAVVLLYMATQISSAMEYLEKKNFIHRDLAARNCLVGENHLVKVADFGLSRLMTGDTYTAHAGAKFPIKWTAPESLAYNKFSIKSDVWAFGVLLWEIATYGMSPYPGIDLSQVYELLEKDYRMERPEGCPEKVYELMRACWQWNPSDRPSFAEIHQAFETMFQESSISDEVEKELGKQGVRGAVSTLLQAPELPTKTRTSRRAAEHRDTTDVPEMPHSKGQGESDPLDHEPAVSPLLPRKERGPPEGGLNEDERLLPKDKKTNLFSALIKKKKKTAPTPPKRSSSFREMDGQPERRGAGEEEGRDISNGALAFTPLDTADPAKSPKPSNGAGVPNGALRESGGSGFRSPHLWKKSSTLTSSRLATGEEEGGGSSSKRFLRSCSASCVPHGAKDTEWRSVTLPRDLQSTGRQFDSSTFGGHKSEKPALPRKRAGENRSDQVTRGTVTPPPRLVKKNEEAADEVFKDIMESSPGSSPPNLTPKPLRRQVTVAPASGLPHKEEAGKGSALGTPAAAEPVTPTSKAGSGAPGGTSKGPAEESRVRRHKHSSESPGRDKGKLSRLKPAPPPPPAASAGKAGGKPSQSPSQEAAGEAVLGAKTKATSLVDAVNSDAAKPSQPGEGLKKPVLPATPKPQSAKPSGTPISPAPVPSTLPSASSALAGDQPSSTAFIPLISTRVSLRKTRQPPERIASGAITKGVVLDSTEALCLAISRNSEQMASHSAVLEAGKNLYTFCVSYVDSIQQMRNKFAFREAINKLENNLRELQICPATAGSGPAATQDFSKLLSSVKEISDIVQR
Chain of Cytochrome P450 1A2 (P05177 whole entry, the tested form may be a part): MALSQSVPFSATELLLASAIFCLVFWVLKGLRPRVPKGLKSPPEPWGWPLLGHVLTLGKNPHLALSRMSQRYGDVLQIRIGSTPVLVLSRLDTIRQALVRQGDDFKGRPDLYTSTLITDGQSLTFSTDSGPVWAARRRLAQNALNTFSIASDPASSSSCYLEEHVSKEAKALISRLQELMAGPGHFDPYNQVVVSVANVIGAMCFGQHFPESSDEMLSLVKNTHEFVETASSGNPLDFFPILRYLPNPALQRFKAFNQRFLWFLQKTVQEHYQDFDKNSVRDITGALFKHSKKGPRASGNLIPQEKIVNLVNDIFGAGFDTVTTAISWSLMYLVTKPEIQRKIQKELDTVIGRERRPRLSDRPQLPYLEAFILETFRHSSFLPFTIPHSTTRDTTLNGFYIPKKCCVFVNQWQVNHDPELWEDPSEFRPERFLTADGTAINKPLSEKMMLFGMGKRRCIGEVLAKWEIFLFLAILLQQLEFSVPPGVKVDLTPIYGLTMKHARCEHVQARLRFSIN
Chain of Cytochrome P450 2C9 (P11712 whole entry): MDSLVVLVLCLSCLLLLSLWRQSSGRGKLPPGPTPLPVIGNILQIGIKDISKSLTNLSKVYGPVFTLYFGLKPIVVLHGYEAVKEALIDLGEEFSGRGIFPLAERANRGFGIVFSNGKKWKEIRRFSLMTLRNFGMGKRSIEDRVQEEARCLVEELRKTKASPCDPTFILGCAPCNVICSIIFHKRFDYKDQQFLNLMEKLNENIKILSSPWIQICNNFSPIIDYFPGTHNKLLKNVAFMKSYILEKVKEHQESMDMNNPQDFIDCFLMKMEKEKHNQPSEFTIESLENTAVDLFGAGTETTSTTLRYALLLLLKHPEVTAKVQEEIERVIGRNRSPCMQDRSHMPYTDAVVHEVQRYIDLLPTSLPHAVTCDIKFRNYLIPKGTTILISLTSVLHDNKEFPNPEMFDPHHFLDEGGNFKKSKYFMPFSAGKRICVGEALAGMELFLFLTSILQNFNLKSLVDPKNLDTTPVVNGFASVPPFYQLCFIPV
Chain of MAP kinase-interacting serine/threonine-protein kinase 2 (Homo sapiens) (Q9HBH9 whole entry, looked up, the tested form may be a part): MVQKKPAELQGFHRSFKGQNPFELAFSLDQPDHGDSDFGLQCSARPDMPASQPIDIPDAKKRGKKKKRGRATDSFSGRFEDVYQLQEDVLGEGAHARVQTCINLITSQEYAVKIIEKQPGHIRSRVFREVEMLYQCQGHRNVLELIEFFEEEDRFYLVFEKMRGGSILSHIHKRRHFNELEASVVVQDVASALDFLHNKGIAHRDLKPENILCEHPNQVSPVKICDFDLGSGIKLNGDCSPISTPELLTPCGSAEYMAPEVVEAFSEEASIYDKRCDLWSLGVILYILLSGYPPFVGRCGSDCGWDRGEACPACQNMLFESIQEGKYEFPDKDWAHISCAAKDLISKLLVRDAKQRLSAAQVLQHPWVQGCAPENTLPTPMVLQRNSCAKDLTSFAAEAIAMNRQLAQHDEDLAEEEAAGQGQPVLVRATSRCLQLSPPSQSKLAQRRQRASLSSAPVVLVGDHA
Chain of Tyrosine-protein kinase ITK/TSK (Q08881 whole entry, the tested form may be a part): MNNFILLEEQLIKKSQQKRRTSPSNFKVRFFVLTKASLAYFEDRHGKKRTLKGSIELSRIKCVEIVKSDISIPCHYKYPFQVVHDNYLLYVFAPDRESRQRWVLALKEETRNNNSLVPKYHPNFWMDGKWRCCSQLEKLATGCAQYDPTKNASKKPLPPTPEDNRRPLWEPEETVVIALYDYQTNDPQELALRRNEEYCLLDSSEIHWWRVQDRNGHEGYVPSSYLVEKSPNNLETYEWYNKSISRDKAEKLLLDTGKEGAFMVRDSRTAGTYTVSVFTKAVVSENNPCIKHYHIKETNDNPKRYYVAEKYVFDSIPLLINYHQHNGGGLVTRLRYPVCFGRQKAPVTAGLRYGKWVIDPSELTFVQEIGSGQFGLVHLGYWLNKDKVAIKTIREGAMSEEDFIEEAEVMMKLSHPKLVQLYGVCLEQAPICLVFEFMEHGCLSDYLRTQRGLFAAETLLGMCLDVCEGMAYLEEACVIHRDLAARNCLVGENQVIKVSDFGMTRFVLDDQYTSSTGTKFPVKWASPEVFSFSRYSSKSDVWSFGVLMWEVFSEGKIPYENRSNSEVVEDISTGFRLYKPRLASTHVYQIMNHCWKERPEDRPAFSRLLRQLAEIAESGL
Chain of Cytochrome P450 2C19 (P33261 whole entry): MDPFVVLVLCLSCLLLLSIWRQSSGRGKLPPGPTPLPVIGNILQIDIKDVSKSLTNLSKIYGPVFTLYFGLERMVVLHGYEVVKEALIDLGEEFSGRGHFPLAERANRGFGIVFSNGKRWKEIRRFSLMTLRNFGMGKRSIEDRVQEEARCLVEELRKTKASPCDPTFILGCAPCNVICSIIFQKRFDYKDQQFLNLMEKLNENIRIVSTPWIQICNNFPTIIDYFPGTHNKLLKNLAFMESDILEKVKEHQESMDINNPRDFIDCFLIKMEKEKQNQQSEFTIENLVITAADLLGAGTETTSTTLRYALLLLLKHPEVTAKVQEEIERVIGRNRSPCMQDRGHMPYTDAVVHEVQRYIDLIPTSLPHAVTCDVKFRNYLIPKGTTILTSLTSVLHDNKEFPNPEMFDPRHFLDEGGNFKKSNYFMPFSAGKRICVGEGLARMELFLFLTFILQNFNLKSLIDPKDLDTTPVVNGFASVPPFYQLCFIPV
Chain of Cytochrome P450 3A4 (P08684 whole entry): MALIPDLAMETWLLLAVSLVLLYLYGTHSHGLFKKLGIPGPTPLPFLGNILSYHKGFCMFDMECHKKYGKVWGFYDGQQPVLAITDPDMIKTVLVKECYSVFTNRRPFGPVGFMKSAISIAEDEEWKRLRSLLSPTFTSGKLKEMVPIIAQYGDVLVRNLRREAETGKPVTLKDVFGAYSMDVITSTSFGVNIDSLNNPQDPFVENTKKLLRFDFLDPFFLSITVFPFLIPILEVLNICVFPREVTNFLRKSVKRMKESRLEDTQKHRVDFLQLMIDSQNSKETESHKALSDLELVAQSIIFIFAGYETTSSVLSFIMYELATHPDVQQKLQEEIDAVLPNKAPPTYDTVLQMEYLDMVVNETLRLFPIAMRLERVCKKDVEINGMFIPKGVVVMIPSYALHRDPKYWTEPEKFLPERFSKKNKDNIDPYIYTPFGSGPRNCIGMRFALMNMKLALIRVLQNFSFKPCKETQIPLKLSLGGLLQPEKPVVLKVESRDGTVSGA
Chain of Tyrosine-protein kinase TXK (P42681 whole entry, the tested form may be a part): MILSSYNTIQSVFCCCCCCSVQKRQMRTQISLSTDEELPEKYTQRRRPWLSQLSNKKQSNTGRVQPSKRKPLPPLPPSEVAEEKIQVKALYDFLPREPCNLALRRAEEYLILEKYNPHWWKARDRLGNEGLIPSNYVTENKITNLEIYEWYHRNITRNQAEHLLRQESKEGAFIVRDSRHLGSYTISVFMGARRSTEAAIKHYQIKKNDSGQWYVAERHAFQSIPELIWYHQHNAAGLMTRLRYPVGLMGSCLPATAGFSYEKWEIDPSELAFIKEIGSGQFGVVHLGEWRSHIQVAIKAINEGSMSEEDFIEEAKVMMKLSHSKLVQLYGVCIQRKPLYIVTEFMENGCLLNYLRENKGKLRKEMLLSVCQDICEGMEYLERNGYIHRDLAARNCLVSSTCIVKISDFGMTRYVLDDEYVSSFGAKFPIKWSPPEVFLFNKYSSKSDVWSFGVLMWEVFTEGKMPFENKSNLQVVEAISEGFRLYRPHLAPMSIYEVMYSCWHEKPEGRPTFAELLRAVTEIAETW

Row | SMILES | Kd [1] | Kd [2] | Kd [3] | IC50 (Cytochrome P450 3A4) | IC50 (Cytochrome P450 2C9) | IC50 (Cytochrome P450 2C19) | IC50 (Cytochrome P450 1A2) | IC50 (B cell [12]) | IC50 (B cell [13]) | IC50 (B cell [14]) | also measured
1 | O=C(Nc1cccc([C@@H]2CN(c3ncnc4[nH]ccc34)CCN2CCO)c1)Nc1c(F)cccc1N1CCCC1 | 0.005 µM | 0.42 µM | 0.53 µM | > 5 µM | > 5 µM | > 5 µM | > 5 µM | 0.238 to 0.24 µM | 0.251 µM | 0.092 µM | inhibition [4]: 61%; inhibition [5]: 23%; inhibition [6]: 100%; inhibition [7]: 96%; inhibition [8]: 64%; inhibition [9]: 84%; inhibition [10]: 100%; inhibition [11]: 71%
2 | O=C(Nc1cccc([C@H]2CCCN(c3ncnc4[nH]ccc34)C2)c1)Nc1ccccc1N1CCCC1 | 0.4 µM | > 1 µM | > 1 µM | 1 µM | 1.8 µM | 2.2 µM | 2.2 µM | 1.89 µM | 1.01 µM | 0.916 µM | inhibition [15]: 25%; inhibition [16]: 83%; inhibition [17]: 86%; inhibition [18]: 100%; inhibition [19]: 2.2%; inhibition [20]: 98%; inhibition [21]: 67%; inhibition [22]: 34%; inhibition [23]: 56%; inhibition [24]: 85%; inhibition [25]: 18%; inhibition [26]: 79%

— ChEMBL document CHEMBL4387741, “Optimization of novel reversible Bruton's tyrosine kinase inhibitors identified using Tethering-fragment-based screens” (Bioorg Med Chem, 2019)
